Numbers after ± are expanded uncertainties.
Test: xn = mol fraction of the nth substance listed
Conditions: Liquid; for mass density: Vibrating wire densiometer; for viscosity: Vibrating wire viscometry

CCCCCCCCCCCCCCCC [hexadecane] + O=C=O
Conditions | mass density [kg/m3] | viscosity [mPa·s]
298.14 K, 21810 kPa, x2 = 0.727 | 822.6 ± 2.5 | 0.786 ± 0.018
298.14 K, 22010 kPa, x2 = 0.727 | 822.8 ± 2.5 | 0.787 ± 0.018
298.14 K, 31030 kPa, x2 = 0.727 | 831.7 ± 2.5 | 0.861 ± 0.02
298.14 K, 41130 kPa, x2 = 0.727 | 840.7 ± 2.6 | 0.943 ± 0.021
298.16 K, 10920 kPa, x2 = 0.069 | 776.3 ± 2.3 | 3.057 ± 0.066
298.16 K, 11130 kPa, x2 = 0.069 | 776.5 ± 2.3 | 3.075 ± 0.066
298.16 K, 21440 kPa, x2 = 0.069 | 782.8 ± 2.4 | 3.474 ± 0.074
298.16 K, 30250 kPa, x2 = 0.069 | 787.6 ± 2.4 | 3.87 ± 0.082
298.18 K, 10440 kPa, x2 = 0.5877 | 802.3 ± 2.5 | 1.003 ± 0.025
298.18 K, 10670 kPa, x2 = 0.5877 | 802.7 ± 2.5 | 0.998 ± 0.025
298.18 K, 20560 kPa, x2 = 0.5877 | 811.8 ± 2.5 | 1.107 ± 0.027
298.18 K, 30070 kPa, x2 = 0.5877 | 819.7 ± 2.5 | 1.219 ± 0.029
298.18 K, 40380 kPa, x2 = 0.5877 | 827.4 ± 2.5 | 1.344 ± 0.033
323.12 K, 21230 kPa, x2 = 0.727 | 796.3 ± 2.4 | 0.565 ± 0.013
323.12 K, 21410 kPa, x2 = 0.727 | 796.3 ± 2.4 | 0.565 ± 0.013
323.12 K, 40330 kPa, x2 = 0.727 | 817.3 ± 2.5 | 0.679 ± 0.016
323.12 K, 60540 kPa, x2 = 0.727 | 835.2 ± 2.5 | 0.806 ± 0.018
323.12 K, 80280 kPa, x2 = 0.727 | 850.1 ± 2.6 | 0.93 ± 0.021
323.12 K, 100230 kPa, x2 = 0.727 | 863.2 ± 2.6 | 1.064 ± 0.025
323.12 K, 119920 kPa, x2 = 0.727 | 874.7 ± 2.6 | 1.204 ± 0.027
323.15 K, 10410 kPa, x2 = 0.069 | 759.1 ± 2.3 | 1.83 ± 0.039
323.15 K, 10420 kPa, x2 = 0.069 | 759.2 ± 2.3 | 1.827 ± 0.039
323.15 K, 10630 kPa, x2 = 0.5877 | 779 ± 2.4 | 0.704 ± 0.017
323.15 K, 10860 kPa, x2 = 0.5877 | 779.5 ± 2.4 | 0.703 ± 0.017
323.15 K, 20230 kPa, x2 = 0.069 | 765.7 ± 2.3 | 2.061 ± 0.044
323.15 K, 20850 kPa, x2 = 0.5877 | 790.2 ± 2.4 | 0.786 ± 0.018
323.15 K, 40110 kPa, x2 = 0.5877 | 807.6 ± 2.5 | 0.947 ± 0.022
323.15 K, 40860 kPa, x2 = 0.069 | 778.3 ± 2.3 | 2.56 ± 0.054
323.15 K, 60100 kPa, x2 = 0.5877 | 822.7 ± 2.5 | 1.122 ± 0.026
323.15 K, 60910 kPa, x2 = 0.069 | 788.7 ± 2.4 | 3.13 ± 0.066
323.15 K, 80840 kPa, x2 = 0.069 | 798.2 ± 2.4 | 3.755 ± 0.079
323.15 K, 99870 kPa, x2 = 0.069 | 806 ± 2.4 | 4.474 ± 0.093
373.08 K, 10380 kPa, x2 = 0.069 | 726.3 ± 2.2 | 0.927 ± 0.025
373.08 K, 12120 kPa, x2 = 0.069 | 728 ± 2.2 | 0.947 ± 0.02
373.08 K, 21470 kPa, x2 = 0.069 | 735.9 ± 2.2 | 1.048 ± 0.023
373.08 K, 26470 kPa, x2 = 0.727 | 752.5 ± 2.3 | 0.365 ± 0.009
373.08 K, 26600 kPa, x2 = 0.727 | 752.7 ± 2.3 | 0.365 ± 0.009
373.08 K, 40330 kPa, x2 = 0.069 | 749.9 ± 2.3 | 1.263 ± 0.027
373.08 K, 40830 kPa, x2 = 0.727 | 773 ± 2.4 | 0.424 ± 0.01
373.08 K, 60000 kPa, x2 = 0.727 | 794.6 ± 2.4 | 0.503 ± 0.012
373.08 K, 60300 kPa, x2 = 0.069 | 762.5 ± 2.3 | 1.514 ± 0.032
